No end group written: not given here.

Data on five substances can be found in patent publication US7728105B2, “Peptides impairing PBX dependent gene regulation” (St. George's Hospital Medical School, priority 2002, dated 2010).

The conditions of data set [1]: comparison with other peptide based pharmaceuticals; cited from earlier work.
In data set [2] the test system is PBX1, 2 and 3 association with HOX proteins. Nature of the data set: Cross-linking and Western blot of PBX proteins in KG1a cells (Example 2). Type of data set: cell-based, human. As to conditions: 24 hours, 1 μM peptide, EDC cross-linking. As for the experimental part:
HXP and control peptides were as described in Example 1. KG1a cells were grown as described in Example 1. KG1a cells were cultured for 24 hours without treatment, or in the presence of 1 μM HXP peptide or control peptide. The cells were harvested and lysed. One aliquot of the cells was subject to cross-linking. Frozen cells were lysed using standard techniques and […] of lysate was incubated for 30 minutes at room temperature in 4 mM 1-ethyl-3-[3-(dimethyl-amino)propyl]carbodimide (EDC), 4 mM sulpho-NHS, 20 mM HEPES (pH 7.5), 5 mM MgCl2, and 0.03% (w/v) […] to cross-link non-covalently associated proteins. The reaction was stopped by the addition of ammonium acetate to a final concentration of 50 mM. The other aliquot was frozen without cross-linking.
Proteins were extracted from the cells of both aliquots by standard techniques and separated by gel electrophoresis. The gels were probed by Western blot with an antibody raised against PBX1, 2 and 3 (sc-888, Santa Cruz Inc. USA) or an anti-beta actin antibody (sc-1615, Santa Cruz Inc. USA).
(In western blotting, separated proteins are transferred to a membrane and probed.)

Data set [3] concerns malignant cell lines. As to the kind of experiment: Proliferation of malignant cell lines over seven days in culture. It counts as cell-based, human. The arrangement: effect of increased dose on proliferation of malignant cell lines: dose or concentration left out as unconfirmed. As to conditions: ten fold increase in dose. The procedure: A number of cell lines representing different malignancies were grown in culture for seven days, and HXP peptide or the control peptide CXP were added to a final concentration of 20 μg/ml on day 3. The bars represent the fold increase of each cell line over the seven days; the empty, dashed bars indicate the CXP peptide treated cells, whilst the solid bars indicate the addition of HXP peptide. Error bars represent the standard error the mean, and n is the number of experiments performed. The cell lines used were: AML—KG1a; Bladder—HT; Breast—SKBR3; Cervical—HeLa; Colon—Colo41; Gastric—MKN-45; Large cell lung cancer—MES; Melanoma—DX3; Ovarian—1847; Pancreatic—Panc-Tu1; Prostate—LNCAP; Renal—HT1376; Small cell lung cancer—NCI-h510A. The change in the expression of the HOX genes expressed by each cell line was assessed by RT-PCR on RNA extracted from the cells at the end of seven days. ‘HOX gene inactivated’ means that the level of expression of each of the listed HOX genes was at least five fold lower in the HXP peptide treated cells compared to the control. *Analysis not yet complete.
A number of cell lines representing different malignancies were grown in culture for seven days, and HXP peptide or the control peptide CXP were added to a final concentration of 200 μg/ml on day 3. The bars represent the fold increase of each cell line over the seven days; the empty, dashed bars indicate the CXP peptide treated cells, whilst the solid bars indicate the addition of HXP peptide. Error bars represent the standard error the mean, and n is the number of experiments performed. The cell lines used were: Bladder—HT; Cervical—HeLa; Melenoma—DX3; Pancreatic—Panc-Tu1.
Solid tumour cell lines (Cancer Research UK) were seeded at 4×10^4 cells/ml, in a liquid culture system made of appropriate medium (see table, Sigma-Aldrich, UK) supplemented with 10% FCS (Sigma Aldrich) and penstrep (1% Sigma). All cell lines were grown with HXP peptide (as in Example 3, 20 μg/ml or 200 μg/ml) or control peptide CXP (20 μg/ml or 200 μg/ml).
KG1a, KG1, HL60 and U937 cell lines (EACC, UK) were seeded at 5×10^4 cells/ml, in a liquid culture system made of RPMI-1640 medium (Life Technologies, UK) supplemented with 10% FCS (Sigma Aldrich) and gentamicin (50 μg/ml Life Technologies) in triplicates. All cell lines were grown with HXP peptide peptide (20 μg/ml) or control peptide (20 μg/ml).
Cell lines were cultured for various time points at 37° C., 5% CO2 in humidified atmosphere and enumerated at various time points.

The subject of data set [4] is PBX/HOX dimers. As to the kind of experiment: Western blotting of PBX and PBX/HOX dimers in CD133+ cells (Example 3). It counts as cell-based, human. To be noted: 20 μg/ml, EDC cross-linking. The procedure: CD133+ cells (another name for AC133+ cells) were seeded in duplicate at 4×10^4 cells/ml in IMDM (Life Technologies), 10% FCS (Sigma Aldrich) and gentamycin (50 μg/ml Life Technologies) and Thrombopoietin (TPO) 10 ng/ml, Flt3-Ligand (FL) 50 ng/ml & c-KitL (K) 20 ng/ml), all obtained from R and D systems Ltd., UK. (Forraz et al., 2002). The HXP peptide (N-term: WYPWMKKHHRQIKIWFQNRRMKWKK: C-term; Eurogentec, Belgium) and control CXP peptide (N-term: WCCLADRHGRQIKIWFQNRRMKWKK: C-term; Eurogentec, Belgium) were added to culture medium at a concentration of 20 μg/ml. To withdraw peptides from culture, cells were washed twice in IMDM or RPMI and reseeded at prewash cell densities. Primary cells were cultured for 3 weeks at 37° C., 5% CO2 in humidified atmosphere and enumerated by a […] exclusion method with a heamocytometer.
Protein was extracted from HXP-treated or CXP-treated CD133+ cells (20 μg/ml). C-20 antibody that recognises all three human PBX gene proteins (sc-888, Santa Cruz Biotechnology Inc., USA; Monica et al., 1991). Protein cross linking was performed with 2 mM 1-ethyl-3-[3-(dimethylamino)propyl]carbodiimide (EDC) (Pierce Biotechnology, USA), in cell lysates diluted 1:10 in conjugation buffer (0.1M 2-[N-morpholino]ethane sulphonic acid, pH 5). […]

Data set [5] concerns AC133+ cells. As to the kind of experiment: Short-term ex-vivo AC133+ cell expansion culture with HXP peptide, trypan blue cell count. Type of data set: cell-based, human. To be noted: HXP peptide withdrawn at 7 days, Hox B4 protein 20 μg/ml added. The procedure:
Umbilical Cord Blood (UCB) specimens were collected from full-term deliveries scheduled for elective caesarian sections following hospital ethical regulations.
Samples were diluted 1 in 4 in PBS supplemented with a citrate-based anti-coagulant (0.6% ACD-A, Baxter, France) and Bovine Serum Albumin (0.5% fraction V, Sigma Aldrich, UK) at pH=7.4 and referenced as “ACD-A buffer”. Diluted UCB was carefully overlaid in a 1:4 ratio onto a research grade Ficoll-Paque solution (d:1.077 g/cm^3, Pharmacia Biotech, Sweden) prior to Centrifugation (400 g, 30 minutes, 22° C.). The mononuclear cells (MNC) layer was extracted, washed twice in ACD-A Buffer, pelleted (400 g, 10 minutes) before resuspending in ACD-A buffer and cell aliquots taken for cell viability/enumeration using trypan blue (Sigma Aldrich).
AC133+ cells were obtained from MNC after immunomagnetic separation using the AC133 mini-MACS selection kit (Miltenyi Biotec, Germany): labelling volume 500 μl/10^8 cells in ACD-A buffer containing Fc Receptor-blocking reagent (100 μl, 5 min incubation, 4° C.) before adding colloidal super-paramagnetic MACS MicroBeads conjugated to monoclonal mouse anti-human AC133/1 antibody (100 μl IgG1 isotype, 25 min incubation, 4° C.). Cells were then washed (5 ml ACD-A buffer, 400 g, 10 min, 4° C.) before resuspended cells in 500 μl ACD-A buffer were applied to a chilled MACS positive selection column (MS+/RS+) on a magnet. The column was rinsed with cool ACD-A buffer (4×500 μl) and the AC133− cell population retained at 4° C. After magnet removal AC133+ cells were eluted with 1 ml of cold ACD-A buffer. The AC133+ cell fraction was reapplied to a new column, prior to cell enumeration and viability assays.
AC133+ cells were seeded in duplicate in liquid culture system at 2-4×10^4 cells/ml. […] Cultured cells were then counted at various time points using trypan blue exclusion method described above.

The nature of data set [6]: Stability in human serum at 37° C., denaturing PAGE and silver stain.
Procedure: 30 μg of HXP(10) or HXP peptide were incubated in 50 μl of human serum at 37° C. for the times shown. Samples were run on a denaturing PAGE and silver stained.

On to low molecular weight heparin, for which, in data set [1], the serum half life result was “thirty”.
Turning to “WAPWEDDHHRQIKIWFQNRRMKWKK (Control Peptide) [reference compound]”, the “association of PBX proteins with other proteins (HOX proteins)” value in data set [2] is given as “associated with-other proteins”. In data set [3], the “effect of increased dose on proliferation of malignant cell lines” value was “no significant affect on proliferation”.
For “WCCLADRHGRQIKIWFQNRRMKWKK (WCCLADRHGRQIKIWFQNRRMKWKK) [CXP, reference compound]”, the “binding of PBX to other proteins / formation of PBX/HOX dimers” value in data set [4] was “not”.
In the case of “HOX B4: recombinant full length Xenopus laevis sequence”, the “AC133+ cell proliferation after HXP peptide withdrawal and co-stimulation with HOX B4” value in data set [5] is on record as “reverted to near control levels”.
Substance WYPWMKKHHR [HXP4(10), WYPWMKKHHR] had a half-life in data set [6] of around 4 h.

What is called half-life is the time needed for the level to fall by half in the phase considered.
